Test results from PubChem BioAssay (NCI).
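Results reflect a 48-hour exposure of cells in 96-well plates to compound at five concentrations. GI50: concentration for 50% inhibition of growth. At the TGI there is no net growth.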

Legend:
Assay in all cases: NCI-60 cell line screen, 48 h
786-0 renal = tested on: 786-0 renal
A498 renal = tested on: A498 renal
A549 NSCLC = tested on: A549 NSCLC
ACHN renal = tested on: ACHN renal
BT-549 breast = tested on: BT-549 breast
CAKI-1 renal = tested on: CAKI-1 renal
CCRF-CEM leukemia = tested on: CCRF-CEM leukemia
COLO 205 colon = tested on: COLO 205 colon
DU-145 prostate = tested on: DU-145 prostate
EKVX NSCLC = tested on: EKVX NSCLC
HCC-2998 colon = tested on: HCC-2998 colon
HCT-116 colon = tested on: HCT-116 colon
HCT-15 colon = tested on: HCT-15 colon
HL-60(TB) leukemia = tested on: HL-60(TB) leukemia
HOP-62 NSCLC = tested on: HOP-62 NSCLC
HOP-92 NSCLC = tested on: HOP-92 NSCLC
HS 578T breast = tested on: HS 578T breast
HT29 colon = tested on: HT29 colon
IGROV1 ovarian = tested on: IGROV1 ovarian
K-562 leukemia = tested on: K-562 leukemia
KM12 colon = tested on: KM12 colon
LOX IMVI melanoma = tested on: LOX IMVI melanoma
M14 melanoma = tested on: M14 melanoma
MALME-3M melanoma = tested on: MALME-3M melanoma
MCF7 breast = tested on: MCF7 breast
MDA-MB-231 breast = tested on: MDA-MB-231 breast
MDA-MB-435 = tested on: MDA-MB-435
MOLT-4 leukemia = tested on: MOLT-4 leukemia
NCI-H226 lung = tested on: NCI-H226 lung
NCI-H23 lung = tested on: NCI-H23 lung
NCI-H460 lung = tested on: NCI-H460 lung
NCI-H522 lung = tested on: NCI-H522 lung
NCI/ADR-RES ovarian = tested on: NCI/ADR-RES ovarian
OVCAR-4 ovarian = tested on: OVCAR-4 ovarian
OVCAR-5 ovarian = tested on: OVCAR-5 ovarian
OVCAR-8 ovarian = tested on: OVCAR-8 ovarian
PC-3 prostate = tested on: PC-3 prostate
RPMI-8226 leukemia = tested on: RPMI-8226 leukemia
RXF 393 renal = tested on: RXF 393 renal
SF-268 CNS = tested on: SF-268 CNS
SF-295 CNS = tested on: SF-295 CNS
SF-539 CNS = tested on: SF-539 CNS
SK-MEL-2 melanoma = tested on: SK-MEL-2 melanoma
SK-MEL-28 melanoma = tested on: SK-MEL-28 melanoma
SK-OV-3 ovarian = tested on: SK-OV-3 ovarian
SN12C renal = tested on: SN12C renal
SNB-19 CNS = tested on: SNB-19 CNS
SNB-75 CNS = tested on: SNB-75 CNS
SR leukemia = tested on: SR leukemia
SW-620 colon = tested on: SW-620 colon
T-47D breast = tested on: T-47D breast
TK-10 renal = tested on: TK-10 renal
U251 CNS = tested on: U251 CNS
UACC-257 melanoma = tested on: UACC-257 melanoma
UACC-62 melanoma = tested on: UACC-62 melanoma
UO-31 renal = tested on: UO-31 renal

CS(=O)(=O)Nc1cc(-c2ccc3ncc(C#N)c(NCc4ccccc4O)c3c2)cnc1Cl
GI50 (786-0 renal): 0.693 µM | TGI (786-0 renal): > 100 µM | GI50 (A498 renal): 0.227 µM | TGI (A498 renal): 0.835 µM | GI50 (A549 NSCLC): 1.96 µM | TGI (A549 NSCLC): 13 µM | GI50 (ACHN renal): 1.7 µM | TGI (ACHN renal): > 63 µM | GI50 (BT-549 breast): 0.167 µM | TGI (BT-549 breast): 1.34 µM | GI50 (CAKI-1 renal): 0.325 µM | TGI (CAKI-1 renal): 2.91 µM | GI50 (CCRF-CEM leukemia): 0.243 µM | TGI (CCRF-CEM leukemia): > 100 µM | GI50 (COLO 205 colon): 0.674 µM | TGI (COLO 205 colon): 2.26 µM | GI50 (DU-145 prostate): 0.613 µM | TGI (DU-145 prostate): 12.4 µM | GI50 (EKVX NSCLC): 1.2 µM | TGI (EKVX NSCLC): 7.1 µM | GI50 (HCC-2998 colon): 0.745 µM | TGI (HCC-2998 colon): 6.51 µM | GI50 (HCT-116 colon): 0.408 µM | TGI (HCT-116 colon): 2.96 µM | GI50 (HCT-15 colon): 0.516 µM | TGI (HCT-15 colon): 12 µM | GI50 (HL-60(TB) leukemia): 0.808 µM | TGI (HL-60(TB) leukemia): 21.7 µM | GI50 (HOP-62 NSCLC): 0.48 µM | TGI (HOP-62 NSCLC): 13.3 µM | GI50 (HOP-92 NSCLC): 0.117 µM | TGI (HOP-92 NSCLC): 0.725 µM | GI50 (HS 578T breast): 0.118 µM | TGI (HS 578T breast): 0.612 µM | GI50 (HT29 colon): 1.09 µM | TGI (HT29 colon): 8.63 µM | GI50 (IGROV1 ovarian): 0.229 µM | TGI (IGROV1 ovarian): 1.29 µM | GI50 (K-562 leukemia): 0.465 µM | TGI (K-562 leukemia): > 100 µM | GI50 (KM12 colon): 0.652 µM | TGI (KM12 colon): 7.06 µM | GI50 (LOX IMVI melanoma): 0.397 µM | TGI (LOX IMVI melanoma): 2.18 µM | GI50 (M14 melanoma): 0.532 µM | TGI (M14 melanoma): 10.9 µM | GI50 (MALME-3M melanoma): 0.184 µM | TGI (MALME-3M melanoma): 1.15 µM | GI50 (MCF7 breast): 0.288 µM | TGI (MCF7 breast): 9.27 µM | GI50 (MDA-MB-231 breast): 0.585 µM | TGI (MDA-MB-231 breast): 4.04 µM | GI50 (MDA-MB-435): 0.539 µM | TGI (MDA-MB-435): 9.85 µM | GI50 (MOLT-4 leukemia): 0.418 µM | TGI (MOLT-4 leukemia): > 100 µM | GI50 (NCI-H226 lung): 0.908 µM | TGI (NCI-H226 lung): 32.2 µM | GI50 (NCI-H23 lung): 0.6 µM | TGI (NCI-H23 lung): 15.8 µM | GI50 (NCI-H460 lung): 1.42 µM | TGI (NCI-H460 lung): 18.4 µM | GI50 (NCI-H522 lung): 0.46 µM | TGI (NCI-H522 lung): 6.26 µM | GI50 (NCI/ADR-RES ovarian): 3.09 µM | TGI (NCI/ADR-RES ovarian): > 100 µM | GI50 (OVCAR-4 ovarian): 0.468 µM | TGI (OVCAR-4 ovarian): 6.41 µM | GI50 (OVCAR-5 ovarian): 1.33 µM | TGI (OVCAR-5 ovarian): 19 µM | GI50 (OVCAR-8 ovarian): 0.718 µM | TGI (OVCAR-8 ovarian): 16.8 µM | GI50 (PC-3 prostate): 0.531 µM | TGI (PC-3 prostate): 13.2 µM | GI50 (RPMI-8226 leukemia): 0.609 µM | TGI (RPMI-8226 leukemia): 3.39 µM | GI50 (RXF 393 renal): 0.212 µM | TGI (RXF 393 renal): 1.28 µM | GI50 (SF-268 CNS): 0.248 µM | TGI (SF-268 CNS): 3.12 µM | GI50 (SF-295 CNS): 0.681 µM | TGI (SF-295 CNS): 5.19 µM | GI50 (SF-539 CNS): 0.4 µM | TGI (SF-539 CNS): 3.2 µM | GI50 (SK-MEL-2 melanoma): 0.175 µM | TGI (SK-MEL-2 melanoma): 0.554 µM | GI50 (SK-MEL-28 melanoma): 0.387 µM | TGI (SK-MEL-28 melanoma): 7.38 µM | GI50 (SK-OV-3 ovarian): 0.612 µM | TGI (SK-OV-3 ovarian): 3.68 µM | GI50 (SN12C renal): 0.45 µM | TGI (SN12C renal): > 65 µM | GI50 (SNB-19 CNS): 0.507 µM | TGI (SNB-19 CNS): 15.1 µM | GI50 (SNB-75 CNS): < 0.0378 µM | TGI (SNB-75 CNS): 0.743 µM | GI50 (SR leukemia): 0.231 µM | TGI (SR leukemia): > 100 µM | GI50 (SW-620 colon): 0.47 µM | TGI (SW-620 colon): 6.96 µM | GI50 (T-47D breast): 0.122 µM | TGI (T-47D breast): 4.97 µM | GI50 (TK-10 renal): 0.375 µM | TGI (TK-10 renal): 3.42 µM | GI50 (U251 CNS): 0.3 µM | GI50 (UACC-257 melanoma): 0.736 µM | TGI (UACC-257 melanoma): 7.06 µM | GI50 (UACC-62 melanoma): 0.282 µM | TGI (UACC-62 melanoma): 2.58 µM | GI50 (UO-31 renal): 0.417 µM | TGI (UO-31 renal): > 25.9 µM
